Test results published in EP4748841A1, “BICYCLO[5,6] IMIDAZOLE PYRIMIDONE DERIVATIVE AND PREPARATION METHOD THEREFOR AND USE THEREOF” (Shujing Biopharma Co., Ltd, priority 2023, dated 2025).

target: T1, Lp-PLA2 (Homo sapiens, UniProt Q13093); test: Inhibitory activity against Lp-PLA2 in human plasma (Thio-PAF assay); assay type: biochemical; settings: 2-thio-PAF substrate, 30 min pre-incubation
T1 construct: from tissue; host or cells: pooled (mixed) human plasma
T1 sequence (Q13093 22-441): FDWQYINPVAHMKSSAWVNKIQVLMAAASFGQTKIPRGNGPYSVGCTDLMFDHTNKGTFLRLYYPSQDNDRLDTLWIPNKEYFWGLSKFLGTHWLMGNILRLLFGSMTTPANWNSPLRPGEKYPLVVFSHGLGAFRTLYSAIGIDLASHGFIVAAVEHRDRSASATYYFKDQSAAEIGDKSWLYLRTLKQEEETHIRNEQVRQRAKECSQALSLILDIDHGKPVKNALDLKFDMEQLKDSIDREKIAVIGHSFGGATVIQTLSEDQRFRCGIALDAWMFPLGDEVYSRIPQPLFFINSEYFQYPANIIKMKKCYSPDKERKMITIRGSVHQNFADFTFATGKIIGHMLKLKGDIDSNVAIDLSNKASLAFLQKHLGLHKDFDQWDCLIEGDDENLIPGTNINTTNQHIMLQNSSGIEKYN
Source text: The literature reports that 2-Thio-PAF, commercially available from Cayman Chemical, is a substrate for PAF hydrolase (PAF-AH). After its cleavage by PAF-AH, the free thiol released at the sn-2 position can react with 7-diethylamino-3-(4'-maleimidophenyl)-4-methylcoumarin (CPM), resulting in increased fluorescence. Thus, Lp-PLA2 inhibitors can prevent this cleavage, and no increase in fluorescence is observed. In this experiment, the human plasma assay employed the same thioester analog of PAF as described in the recombinant human Lp-PLA2 assay described above.
• (1) The Thio-PAF assay was performed as a quenched 75 µL assay. A compound source plate was prepared by preparing 1:4 (v/v) serial diluents of the compounds in pure DMSO in a 96-well microplate. • (2) 1 µL of each test compound from the compound source plate was transferred into a 96-well microplate containing 40 µL of pre-thawed mixed human plasma by a Rainin multichannel pipette, and the plasma was thawed at room temperature and centrifuged at 2000 rpm for 10 min. The plate was shaken on a microplate shaker for 2 min for uniform mixing. • (3) After 30 min of pre-incubation at room temperature, 10 µL of a substrate solution was added sequentially to the 96-well microplate described above by a Rainin multichannel pipette. The substrate solution contained 2.5 mM 2-thio-PAF (from an ethanol mother liquor), 32 µM CPM (from a DMSO mother liquor), and 3.2 mM N-ethylmaleimide (freshly prepared in DMSO for each experiment) in assay buffer (pH 7.4) consisting of 50 mM HEPES, 150 mM NaCl, and 1 mM CHAPS. After the addition was completed, the plate was immediately shaken for 2 min, and the reaction time for the substrate was 4 min in total. After the reaction was completed, the reaction was quenched with 25 µL of an aqueous solution of 5% trifluoroacetic acid. The plate was centrifuged at 1000 rpm for 1 min. • (4) The FLINT signal (FLINT380/480) was read using a microplate reader. • (5) IC50 data, curve fitting, and QC analyses were performed using GraphPad Prism 8.0 and Excel.

| SMILES | IC50 [nM] |
| --- | --- |
| O=c1nc(OCc2ccc(Oc3ccc(C(F)(F)F)nc3)c(F)c2)cc2n1CC1CCN21 (stereo not shown) [Example 1] | 3.9 |
| O=c1nc(OCc2ccc(F)cc2)cc2n1CC1CCN21 (stereo not shown) [Example 7, 3-((4-Fluorobenzyl)oxy)-6,7,7a,8-tetrahydro-1H-azeto[1',2':3,4]imidazo[1,2-c]pyrimidin-1-one] | 68.7 |
| Cc1ccc(COc2cc3n(c(=O)n2)CC2CCN32)cc1 (stereo not shown) [Example 8, 3-((4-Methylbenzyl)oxy)-6,7,7a,8-tetrahydro-1H-azeto[1',2':3,4]imidazo[1,2-c]pyrimidin-1-one] | 2430 |
| O=c1nc(OCc2ccc(Oc3ccccc3)cc2)cc2n1CC1CCN21 (stereo not shown) [Example 12, 3-((4-Phenoxybenzyl)oxy)-6,7,7a,8-tetrahydro-1H-azeto[1',2':3,4]imidazo[1,2-c]pyrimidin-1-one] | 2090 |
| N#Cc1cc(COc2cc3n(c(=O)n2)CC2CCN32)ccc1Oc1ccc(C(F)(F)F)cn1 (stereo not shown) [Example 21, 5-(((1-Oxo-6,7,7a,8-tetrahydro-1H-azeto[1',2':3,4]imidazo[1,2-c]pyrimidin-3-yl)oxy)methyl)-2-((5-(trifluoromethyl)pyridin-2-yl)oxy)benzonitrile] | 200 |
| O=c1nc(OCc2ccc(Oc3ccnc(C(F)(F)F)c3)c(F)c2)cc2n1CC1CCN21 (stereo not shown) [Example 23] | 4.3 |
| N#Cc1ccc(COc2cc3n(c(=O)n2)CC2CCN32)cc1 (stereo not shown) [Example 28, 3-((4-Cyanobenzyl)oxy)-6,7,7a,8-tetrahydro-1H-azeto[1',2':3,4]imidazo[1,2-c]pyrimidin-1-one] | 892 |
| Cc1ccc(Oc2c(F)cc(COc3cc4n(c(=O)n3)C[C@H]3CCN43)cc2F)cn1 [Example 36-R] | 15.9 |
| Cc1ccc(Oc2c(F)cc(COc3cc4n(c(=O)n3)C[C@@H]3CCN43)cc2F)cn1 [Example 36-S] | 96.4 |
| Cc1ccc(Oc2c(F)cc(COc3cc4n(c(=O)n3)CC3CCN43)cc2F)cn1 (stereo not shown) [Example 36] | 35.8 |
| O=c1nc(OCc2ccc(Oc3ccc(F)c(C(F)(F)F)c3)nc2)cc2n1CC1CCN21 (stereo not shown) [Example 41, 3-((6-(4-Fluoro-3-(trifluoromethyl)phenoxy)pyridin-3-yl)methoxy)-6,7,7a,8-tetrahydro-1H-azeto[1',2':3,4]imidazo[1,2-c]pyrimidin-1-one] | 292 |
| Cc1ncc(Oc2c(F)cc(COc3cc4n(c(=O)n3)CC3CCN43)cc2F)cn1 (stereo not shown) [Example 44] | 25.6 |
| O=c1nc(OCc2ccc(Oc3ccc(Cl)c(C(F)(F)F)c3)cc2)cc2n1CC1CCN21 (stereo not shown) [Example 50, 3-((4-(4-Chloro-3-(trifluoromethyl)phenoxy)benzyl)oxy)-6,7,7a,8-tetrahydro-1H-azeto[1',2':3,4]imidazo[1,2-c]pyrimidin-1-one] | 12.6 |
| O=c1nc(OCc2ccc(Oc3cnc(C(F)(F)F)nc3)c(F)c2)cc2n1CC1CCN21 (stereo not shown) [Example 51] | 21.2 |
| N#Cc1cc(Oc2ccc(COc3cc4n(c(=O)n3)CC3CCN43)cc2F)ccc1Cl (stereo not shown) [Example 53, 2-Chloro-5-(2-fluoro-4-(((1-oxo-6,7,7a,8-tetrahydro-1H-azeto[1',2':3,4]imidazo[1,2-c]pyrimidin-3-yl)oxy)methyl)phenoxy)benzonitrile] | 107 |
| O=c1nc(OCc2ccc(F)c(F)c2)cc2n1CC1CCN21 (stereo not shown) [Example 54, 3-((3,4-Difluorobenzyl)oxy)-6,7,7a,8-tetrahydro-1H-azeto[1',2':3,4]imidazo[1,2-c]pyrimidin-1-one] | 30.3 |

Now from value to molecule:

| IC50 [nM] | SMILES |
| --- | --- |
| 2740 | O=c1nc(OCc2ccc(Oc3ccccc3)nc2)cc2n1CC1CCN21 (stereo not shown) [Example 16, 3-((6-Phenoxypyridin-3-yl)methoxy)-6,7,7a,8-tetrahydro-1H-azeto[1',2':3,4]imidazo[1,2-c]pyrimidin-1-one] |
| 4.6 | N#Cc1cc(COc2cc3n(c(=O)n2)CC2CCN32)ccc1Oc1cccc(C(F)(F)F)c1 (stereo not shown) [Example 22, 5-(((1-Oxo-6,7,7a,8-tetrahydro-1H-azeto[1',2':3,4]imidazo[1,2-c]pyrimidin-3-yl)oxy)methyl)-2-(3-(trifluoromethyl)phenoxy)benzonitrile] |
| 12.7 | O=c1nc(OCc2ccc(Oc3ccc(F)c(F)c3)c(F)c2)cc2n1CC1CCN21 (stereo not shown) [Example 24, 3-((4-(3,4-Difluorophenoxy)-3-fluorobenzyl)oxy)-6,7,7a,8-tetrahydro-1H-azeto[1',2':3,4]imidazo[1,2-c]pyrimidin-1-one] |
| 52.3 | O=c1nc(OCc2cc(F)c(Oc3ccnc(C(F)(F)F)c3)c(F)c2)cc2n1C[C@@H]1CCN21 [Example 34-S] |
| 5.2 | O=c1nc(OCc2cc(F)c(Oc3ccnc(C(F)(F)F)c3)c(F)c2)cc2n1CC1CCN21 (stereo not shown) [Example 34] |
| 56.3 | O=c1nc(OCc2cnc(Oc3ccc(Cl)c(C(F)(F)F)c3)c(F)c2)cc2n1CC1CCN21 (stereo not shown) [Example 38, 3-((6-(4-Chloro-3-(trifluoromethyl)phenoxy)-5-fluoropyridin-3-yl)methoxy)-6,7,7a,8-tetrahydro-1H-azeto[1',2':3,4]imidazo[1,2-c]pyrimidin-1-one] |
| 3.9 | N#Cc1cc(COc2cc3n(c(=O)n2)CC2CCN32)ccc1Oc1ccc(Cl)c(C(F)(F)F)c1 (stereo not shown) [Example 39, 2-(4-Chloro-3-(trifluoromethyl)phenoxy)-5-(((1-oxo-6,7,7a,8-tetrahydro-1H-azeto[1',2':3,4]imidazo[1,2-c]pyrimidin-3-yl)oxy)methyl)benzonitrile] |
| 203 | Cn1cc(Oc2c(F)cc(COc3cc4n(c(=O)n3)CC3CCN43)cc2F)cn1 (stereo not shown) [Example 45] |
| 4.3 | O=c1nc(OCc2cc(F)c(Oc3ccc(C(F)(F)F)nc3)c(F)c2)cc2n1CC1CCN21 (stereo not shown) [Example 52] |
